The values that follow come from publication PMC7279038, “Antioxidant and Neuroprotective Effects Induced by Cannabidiol and Cannabigerol in Rat CTX-TNA2 Astrocytes and Isolated Cortexes” (International Journal of Molecular Sciences, 2020).

Molecules are shown by their SMILES.

Assay [1] has as its system isolated rat cortexes, 3-HK. As to the kind of experiment: K+ 60 mM neurotoxicity paradigm, 3-HK level. To be noted: for effect on K+ 60 mM-induced increase in 3-HK level: CBD 1000 nM, CBG 1 nM. The procedure:
(§1) Sprague–Dawley rats (200–250 g) were sacrificed by CO2 inhalation (Italian Health Ministry authorization N. F4738.N.XTQ, delivered on 11th November 2018) and isolated prefrontal cortex specimens were immediately explanted and incubated in thermostatic shaking bath at 37 °C for 1 h (incubation period), in Krebs–Ringer buffer at the following K^+ concentrations:
(§2) Cortexes were stimulated with CBD (1000 nM) and […]. Afterwards, specimens were homogenized in perchloric acid solution (0.05 M) for the extraction and quantification of nitrites, via the aforementioned colorimetric Griess assay, and serotonin (5-HT), 5-hydroxyindoleacetic (5HIIA),3-hydroxykinurenine (3-HK) and kinurenic acid (KA) (ng/mg wet tissue) via high performance liquid chromatography analysis. Additionally, an untargeted proteomic analysis was carried out on the cortex homogenate. The analytical protocols for 5-HT, 5HIIA, 3-HK, KA and protein level determinations are described below. The analyses were conducted in triplicate and in independent facilities with blind modality.
Tissue 3-HK, 5-HT and 5HIIA levels were analyzed through an HPLC apparatus consisting of a Jasco (Tokyo, Japan) PU-2080 chromatographic pump and an ESA (Chelmsford, MA, USA) Coulochem III coulometric detector, equipped with a microdialysis cell (ESA-5014b), a porous graphite working electrode and a solid state palladium reference electrode. The analytical conditions for identification and quantification were selected according to previous studies. Specifically, the analytical cell was set at −0.150 V for detector 1 and at +0.300 V for detector 2, with a range of 100 nA. The chromatograms were monitored at the analytical detector 2. […] Sample concentrations were calculated by linear regression curve (y = bx + m) obtained with standard. Neither internal nor external standards were necessary for analyte quantification in the cortex homogenate, and all tests performed for method validation and yielded results in accordance with limits indicated in official guidelines for applicability in laboratory trials. […]

Assay [2] has as its system calcium/calmodulin-dependent protein kinase type II subunit alpha (CAMK2A). In words: Untargeted proteomic analysis of cortexes, CAMK2A. To be noted: CBD 1000 nM, CBG 1 nM. More on the design: species or system rat. The procedure: as §1
as §2, with “The analyses were conducted in triplicate and in independent facilities with blind modality.” left out
After protein quantification, a volume corresponding to 50 μg of proteins was loaded onto a Nanosep 10-kDa-cutoff filter (Pall Corporation, Michigan, USA) and digested according to the protocol we routinely use in our laboratory, adapted from Distler et al. Briefly, the sample was washed twice with 200 μL urea buffer (8M urea, 100 mM Tris pH 8.5 in milliQ water) to remove the detergents present in the lysis buffer. […]

`CCCCCc1cc(O)c(C/C=C(\C)CCC=C(C)C)c(O)c1` [CBG, cannabigerol]: the “effect on K+ 60 mM-induced increase in 3-HK level” value in assay [1] is on record as “completely ineffective”. Further, the 3-HK level entry in assay [1] (basal conditions only) is “reduce 3-HK”. Further, in assay [2], the “effect on K+ 60 mM-induced reduction in CAMK2A level” value was “completely ineffective”.
Regarding `C=C(C)[C@@H]1CCC(C)=C[C@H]1c1c(O)cc(CCCCC)cc1O` [CBD, Cannabidiol], the “effect on K+ 60 mM-induced increase in 3-HK level” value in assay [1] was “successful in blunting”. The “effect on K+ 60 mM-induced reduction in CAMK2A level” value in assay [2] was “blocking the downregulation”.
